Molecules are shown by their SMILES.

By DC50 is commonly meant the midpoint of the concentration-degradation curve. As a reminder, the Dmax is the greatest extent of degradation seen.

The test deals with T1, BRD9 (Homo sapiens, UniProt Q9H8M2).
T1 sequence (Q9H8M2 1-597): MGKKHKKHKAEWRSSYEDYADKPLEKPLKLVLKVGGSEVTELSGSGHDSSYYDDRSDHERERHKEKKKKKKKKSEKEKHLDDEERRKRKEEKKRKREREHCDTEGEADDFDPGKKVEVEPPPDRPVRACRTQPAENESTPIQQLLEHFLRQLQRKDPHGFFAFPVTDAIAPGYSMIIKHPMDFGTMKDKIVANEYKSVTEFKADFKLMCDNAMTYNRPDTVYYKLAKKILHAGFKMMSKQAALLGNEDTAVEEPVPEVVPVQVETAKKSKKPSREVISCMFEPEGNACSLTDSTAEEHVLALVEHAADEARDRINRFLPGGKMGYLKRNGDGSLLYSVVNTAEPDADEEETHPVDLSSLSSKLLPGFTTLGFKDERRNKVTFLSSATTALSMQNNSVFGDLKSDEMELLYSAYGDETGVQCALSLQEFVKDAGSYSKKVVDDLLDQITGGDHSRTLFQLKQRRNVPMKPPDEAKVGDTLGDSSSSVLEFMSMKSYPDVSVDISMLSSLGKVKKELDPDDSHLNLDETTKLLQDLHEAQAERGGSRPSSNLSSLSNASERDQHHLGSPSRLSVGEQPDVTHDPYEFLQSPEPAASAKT
As to the kind of experiment: Degradation of BRD9 (IF), immunofluorescence in MV4-11 cells, 24 hours (Assay Protocol 2). On the set-up: A suspension of MV4-11 cells (ATCC CRL-9591) was prepared; host or cells: MV4-11. Type of test: cell-based. To be noted: BRD9 degradation; for DC50: Assay protocol 2, read-out: DC50; for Dmax: MV4-11, Assay protocol 2, read-out: Dmax. The method, then: Assay Protocol 2—Degradation of BRD9 (IF)
A suspension of MV4-11 cells (ATCC CRL-9591) was prepared in phenol red-free assay media (IMDM Thermo Scientific 21056023+10% FBS ATCC 302025) and cells were seeded at 20,000 cells per well (45 μL) in sterile black poly-d-lysine coated 384 well plates (Greiner 781948). Compounds were prepared at 1000× final concentration in DMSO, diluted 1:100 in assay media, and 5 μL compound was added to each well of the cell plate. Cells were incubated for 24 hours at 37° C. with 5% CO2. All the following incubations for immunofluorescence staining were at room temperature. 15 μL of 16% PFA was added to each well (3.7% final concentration) and the cells were fixed for 15 min then washed twice with DPBS. Cells were permeabilised with 0.1% Triton X-100 for 10 min, Triton X-100 was removed, then blocked with 1% BSA in DPBS for 1 hour. Cells were stained with 25 μL anti-BRD9 E4Q3F antibody (CST 48306) diluted 1:25600 in 1% BSA in DPBS for 2-3 hours. Wels were washed twice with DPBS then incubated with 25 μL of 1% BSA containing a 1:1000 dilution of Anti-rabbit Alexa Fluor™ 647 secondary antibody (Thero Scientific A21244) and 1 μg/mL Hoechst nuclear counter stain (Abcam ab228551) for 1 hour. Wells were washed twice with DPBS prior to imaging on a Perkin Elmer Operetta CLS with 10× air lens. Images were processed using Harmony High-Content Imaging and Analysis Software (Perkin Elmer) and the mean contrast ratio of Alexa Fluor™ 647 in central nuclei was used to quantify BRD9 protein levels. Data was further analysed using Dotmatics software and % BRD9 remaining was calculated by normalisation to average data from high and low control wells (cells treated with DMSO or 100 nM CFT-8634 respectively).

For `COc1ccc(F)c(/C=C(\C#N)C(=O)N2CCc3c(CN4CCN(Cc5c(OC)cc(-c6cn(C)c(=O)c(C)c6C)cc5OC)CC4)cccc3C2C)c1` (mixture of isomers) [Compound B93, (E/Z)-2-(5-((4-(2,6-dimethoxy-4-(1,4,5-trimethyl-6-oxo-1,6-dihydropyridin-3-yl)benzyl)piperazin-1-yl)methyl)-1-methyl-1,2,3,4-tetrahydroisoquinoline-2-carbonyl)-3-(2-fluoro-5-methoxyphenyl)acrylonitrile], the half-maximal degradation concentration (DC50) lay within 1.25 to 10 nM and the Dmax was in the range of 40 to 70%.

For `CC[C@@H]1CN(Cc2c(OC)cc(-c3cn(C)c(=O)c(C)c3C)cc2OC)CCN1Cc1cccc2c1CCN(C(=O)/C(C#N)=C/C(C)(C)C)C2C` (mixture of isomers) [Compound B139, (E/Z)-2-(5-(((R)-4-(2,6-dimethoxy-4-(1,4,5-trimethyl-6-oxo-1,6-dihydropyridin-3-yl)benzyl)-2-ethylpiperazin-1-yl)methyl)-1-methyl-1,2,3,4-tetrahydroisoquinoline-2-carbonyl)-4,4-dimethylpent-2-enenitrile], the DC50 lay within 10 to 25 nM and the Dmax was in the range of 70 to 75%.

`CC[C@H]1c2cccc(CN3CCN(Cc4c(OC)cc(-c5cn(C)c(=O)c(C)c5C)cc4OC)C4(CC4)C3)c2CCN1C(=O)/C(C#N)=C/C(C)(C)CF` (single isomer, unassigned) [Compound C104, (E/Z)-2-(5-((4-(2,6-dimethoxy-4-(1,4,5-trimethyl-6-oxo-1,6-dihydropyridin-3-yl)benzyl)-4,7-diazaspiro[2.5]octan-7-yl)methyl)-1-ethyl-1,2,3,4-tetrahydroisoquinoline-2-carbonyl)-6-fluoro-4,4-dimethylpent-2-enenitrile]: the DC50 was 25 to 1000 nM and the Dmax was 40 to 70%.

On to `COc1cc(-c2cc(C)c(=O)n(C)c2)cc(OC)c1CN1CCN(Cc2cccc(C3CCCN3C(=O)/C(C#N)=C/C(C)(C)C)c2)CC1` (mixture of isomers) [Compound B81], for which the DC50 was less than 1.25 nM and the Dmax is more than 75%.

On to `COc1cc(-c2cn(C)c(=O)c(C)c2C)cc(OC)c1CN1CCN(Cc2cccc3c2CCN(C(=O)/C(C#N)=C\C24CC(OC)(C2)C4)C3C)C2(CC2)C1` (mixture of isomers) [Compound B141, (E/Z)-2-(5-((7-(2,6-dimethoxy-4-(1,4,5-trimethyl-6-oxo-1,6-dihydropyridin-3-yl)benzyl)-4,7-diazaspiro[2.5]octan-4-yl)methyl)-1-methyl-1,2,3,4-tetrahydroisoquinoline-2-carbonyl)-3-(3-methoxybicyclo[1.1.1]pentan-1-yl)acrylonitrile], for which the DC50 is less than 1.25 nM and the Dmax was more than 75%.

For the compound `COc1cc(-c2cn(C)c(=O)c(C)c2C)cc(OC)c1CN1CCN(Cc2ccc3c(c2)[C@H](C)N(C(=O)/C(C#N)=C/C(C)(C)C)CC3)[C@H](C)C1` (single isomer, unassigned) [Compound C3], the DC50 lay within 25 to 1000 nM and the Dmax fell in the range of 40 to 70%.

In the case of `COc1cc(-c2cn(C)c(=O)c(C)c2C)cc(OC)c1CN1CCC2(CC1)CN(c1cccc3c1CCN(C(=O)/C(C#N)=C/C(C)(C)C)[C@@H]3C)C2` (mixture of isomers) [Compound C45, (E/Z)-2-(5-(7-(2,6-dimethoxy-4-(1,4,5-trimethyl-6-oxo-1,6-dihydropyridin-3-yl)benzyl)-2,7-diazaspiro[3.5]nonan-2-yl)-1-methyl-1,2,3,4-tetrahydroisoquinoline-2-carbonyl)-4,4-dimethylpent-2-enenitrile], the DC50 lay within 10 to 25 nM and the Dmax was 40 to 70%.

Consider `CCC1c2cccc(CN3CCN(Cc4c(OC)cc(-c5cn(C)c(=O)c(C)c5C)cc4OC)CC34CC4)c2CCN1C(=O)/C(C#N)=C/C(C)(C)C` (single isomer, unassigned) [Compound C94, (E/Z)-2-(5-((7-(2,6-dimethoxy-4-(1,4,5-trimethyl-6-oxo-1,6-dihydropyridin-3-yl)benzyl)-4,7-diazaspiro[2.5]octan-4-yl)methyl)-1-ethyl-1,2,3,4-tetrahydroisoquinoline-2-carbonyl)-4,4-dimethylpent-2-enenitrile], for which the DC50 was less than 1.25 nM and the Dmax is more than 75%.

Turning to `COc1cc(-c2cn(C)c(=O)c(C)c2C)cc(OC)c1CN1CC(N(C)c2ccc3c(c2)[C@H](C)N(C(=O)/C(C#N)=C/C(C)(C)C)CC3)C1` (single isomer, unassigned) [Compound C44], the half-maximal degradation concentration (DC50) is 1.25 to 10 nM and the greatest degradation seen (Dmax) was 70 to 75%.

`COc1cc(-c2cn(C)c(=O)c(C)c2C)cc(OC)c1CN1CCN(Cc2cccc3c2CCN(C(=O)/C(C#N)=C/C(C)(C)C)C3C(C)C)C2(CC2)C1` (mixture of isomers) [Compound C8, (E/Z)-2-(5-((7-(2,6-dimethoxy-4-(1,4,5-trimethyl-6-oxo-1,6-dihydropyridin-3-yl)benzyl)-4,7-diazaspiro[2.5]octan-4-yl)methyl)-1-isopropyl-1,2,3,4-tetrahydroisoquinoline-2-carbonyl)-4,4-dimethylpent-2-enenitrile]: the DC50 was less than 1.25 nM and the Dmax is more than 75%.

Take `COc1cc(-c2cn(C)c(=O)c(C)c2C)cc(OC)c1CN1CCN(Cc2cccc3c2CCN(C(=O)/C(C#N)=C/C(C)(C)CF)C3C(C)C)C2(CC2)C1` (single isomer, unassigned) [Compound C76, (E/Z)-2-(5-((7-(2,6-dimethoxy-4-(1,4,5-trimethyl-6-oxo-1,6-dihydropyridin-3-yl)benzyl)-4,7-diazaspiro[2.5]octan-4-yl)methyl)-1-isopropyl-1,2,3,4-tetrahydroisoquinoline-2-carbonyl)-5-fluoro-4,4-dimethylpent-2-enenitrile]: the DC50 was 1.25 to 10 nM and the maximal degradation (Dmax) lay in the range of 70 to 75%.

Consider `COc1cc(-c2cn(C)c(=O)c(C)c2C)cc(OC)c1CN1CCN(Cc2cccc3c2CCN(C(=O)/C(C#N)=C/C(C)(C)C)[C@H]3C)[C@@H](C)C1` (single isomer, unassigned) [Compound B197], for which the DC50 fell in the range of 25 to 1000 nM and the Dmax was 40 to 70%.

Take `COc1cc(-c2cn(C)c(=O)c(C)c2C)cc(OC)c1CN1CCN(Cc2cccc3c2CCN(C(=O)/C(C#N)=C/C2CCOCC2)C3C)CC1` (mixture of isomers) [Compound B69, (E/Z)-2-(5-((4-(2,6-dimethoxy-4-(1,4,5-trimethyl-6-oxo-1,6-dihydropyridin-3-yl)benzyl)piperazin-1-yl)methyl)-1-methyl-1,2,3,4-tetrahydroisoquinoline-2-carbonyl)-3-(tetrahydro-2H-pyran-4-yl)acrylonitrile]: the DC50 was in the range of 1.25 to 10 nM and the Dmax was 40 to 70%.

With `COc1cc(-c2cn(C)c(=O)c(C)c2C)cc(OC)c1CN1CCN(C(=O)CCCCOc2ccc(C3CCCN3C(=O)/C(C#N)=C/c3nccs3)cc2)CC1` (mixture of isomers) [Compound B82], the DC50 is 25 to 1000 nM and the Dmax was 40 to 70%.

With `CCC(C)(C)/C=C(\C#N)C(=O)N1CCc2c(CN3CCN(Cc4c(OC)cc(-c5cn(C)c(=O)c(C)c5C)cc4OC)CC34CC4)cccc2C1C` (mixture of isomers) [Compound B117, (E/Z)-2-(5-((7-(2,6-dimethoxy-4-(1,4,5-trimethyl-6-oxo-1,6-dihydropyridin-3-yl)benzyl)-4,7-diazaspiro[2.5]octan-4-yl)methyl)-1-methyl-1,2,3,4-tetrahydroisoquinoline-2-carbonyl)-4,4-dimethylhex-2-enenitrile], the half-maximal degradation concentration (DC50) lay within 1.25 to 10 nM and the Dmax is more than 75%.

For the origin of these results see patent US20260092061A1, “COMPOUNDS FOR TARGETED PROTEIN DEGRADATION” (Amphista Therapeutics Limited, priority 2022, published 2026).
